Data taken from US6569612B1, “Photographic element containing a high-dye-yield coupler for producing a yellow hue” (Eastman Kodak Company, priority 2001, dated 2003).
Where two headings read alike, the source gives them in different places.

Experiment: Measuring pKas of couplers in TRITON X-100 media
Format: physicochemical
Protocol: Procedure for Measuring pKas of Couplers in TRITONX-100 Media:
A solution of the coupler that was ca. 5E-3 M was made with 5.0 mL of dimethyl sulfoxide solvent. A 0.50-mL aliquot of the solution was added to 3.18 g of Triton X- 100 surfactant in a 50-mL volumetric flask. Then ca. 25 mL of ca. 40-deg C. distilled water was added while swirling vigorously. The solution was then cooled to ambient temperature and diluted to 50 mL with water. Various phosphate buffer solutions as potassium salts were prepared with pHs ranging from 3.73 to 12 with ionic strength of 0.75. Ionic strength computations were done using the three pKas for phosphoric acid. A 2.0-mL aliquot of the stock coupler solution was mixed with 2.0 mL of chosen buffer in a 5-dram vial. […] A wavelength between 310 and 350 nm was typically chosen. The pH of the mixture was then measured with a CORNING Model 125 meter. A baseline reference blank spectrum was run with TRITON X-100 (surfactant) and pH 7 buffer. The data of corrected absorbances (differences from the blank spectrum) and pHs were used to compute by least-squares the pKa and the other two unknowns of high and low limiting densities. The pKa measurements are made with an experimental uncertainty within ±0.10, which depends on sources of material, the number of experimental points, number of replicates, and the like.

[1] = Table 3, TRITON X-100 media, read-out: pKa
[2] = Table 5, TRITON X-100 media, read-out: pKa
[3] = Table 7, TRITON X-100 media, read-out: pKa
[4] = Table 4, TRITON X-100 media, read-out: pKa
[5] = Table 8, TRITON X-100 media, read-out: pKa

CCCCCCCCCCCCOC(=O)c1ccc(Cl)c(NC(=O)C(C(=O)c2ccc(OC)cc2)N2C(=O)C(OCC)N(Cc3ccccc3)C2=O)c1 (stereo not drawn) [CY-1, reference compound]
pKa [1]: 5.1

CCC(C)(C)c1cc(C(C)(C)CC)c2oc(/C(C#N)=C/c3ccc(N(C(=O)OC(C(=O)Nc4cc(CS(=O)(=O)c5ccccc5)ccc4Cl)C(=O)c4ccc(OC)cc4)C4CCCC4)cc3C)nc2c1 (stereo not drawn) [CY-4, reference compound]
pKa [1]: 10.6

CCC(C)(C)c1cc(C(C)(C)CC)c2oc(/C(C#N)=C/c3ccc(N(C(=O)OC(C(=O)Nc4cc(CS(=O)(=O)c5ccc(O)cc5)ccc4Cl)C(=O)c4ccc(OC)cc4)C4CCCC4)cc3C)nc2c1 (stereo not drawn) [CY-5, reference compound]
pKa [1]: 10

CCCCCCCCCCCCOC(=O)c1ccc(Cl)c(NC(=O)C(OC(=O)N(C)c2ccc(/C=C(\C#N)c3nc4cc(C(C)(C)C)ccc4o3)c(C)c2)C(=O)c2ccc(OC)cc2)c1 (stereo not drawn) [CY-7, reference compound]
pKa [1]: 9.1

CCCCCCCCCCCCNS(=O)(=O)c1ccc(NC(=O)C(OC(=O)N(c2ccc(/C=C(\C#N)c3nc4cc(C(C)(C)C)ccc4o3)c(C)c2)C2CCCC2)C(=O)c2ccc(OC)cc2)c(Cl)c1 (stereo not drawn) [CY-8, reference compound]
pKa [2]: 9.5

CCCCCCCCCCCCCCCCNS(=O)(=O)c1ccc(Cl)c(NC(=O)C(OC(=O)N(CCCCCCCCCCCC)c2ccc(/C=C(\C#N)c3nc4ccccc4o3)c(C)c2)C(=O)c2ccc(OC)cc2)c1 (stereo not drawn) [CY-12, reference compound]
pKa (standard measurement, read-out: pKa at the coupling site): 8.7

CCCCCCCCCCCCCCCCNS(=O)(=O)c1ccc(Cl)c(NC(=O)C(OC(=O)N(CCCC)c2ccc(/C=C(\C#N)c3nc4ccccc4o3)c(C)c2)C(=O)c2ccc(OC)cc2)c1 (stereo not drawn) [CY-13, reference compound]
pKa [3]: 8.8

CCCCCCCCCCCCS(=O)(=O)c1ccc(NC(=O)C(OC(=O)N(C)c2ccc(/C=C(\C#N)c3nc4cc(C(C)(C)C)ccc4o3)c(C)c2)C(=O)c2ccccc2)c(Cl)c1 (stereo not drawn) [Coupler Y-1]
pKa [1]: 7.4

CCCCCCCCCCCCCCCCNS(=O)(=O)c1ccc(Cl)c(NC(=O)C(OC(=O)N(C)c2ccc(/C=C(\C#N)c3nc4cc(C(C)(C)C)ccc4o3)c(C)c2)C(=O)c2ccc(OC)cc2)c1 (stereo not drawn) [Coupler Y-2]
pKa [1]: 8.5

CCCCCCCCCCCCS(=O)(=O)c1ccc(NC(=O)C(OC(=O)N(c2ccc(/C=C(\C#N)c3nc4cc(C(C)(C)C)ccc4o3)c(C)c2)C2CCCC2)C(=O)c2ccccc2)c(Cl)c1 (stereo not drawn) [Coupler Y-3]
pKa [4]: 7.8

COc1ccc(C(=O)C(OC(=O)N(c2ccc(/C=C(\C#N)c3nc4cc(C(C)(C)C)ccc4o3)c(C)c2)C2CCCC2)C(=O)Nc2ccc([N+](=O)[O-])cc2Cl)cc1 (stereo not drawn) [Coupler Y-4]
pKa [4]: 8.2

CCC(C)(C)c1cc(C(C)(C)CC)c2oc(/C(C#N)=C/c3ccc(N(C(=O)OC(C(=O)Nc4ccc([N+](=O)[O-])cc4Cl)C(=O)c4ccccc4)C4CCCC4)cc3C)nc2c1 (stereo not drawn) [Coupler Y-5]
pKa [2]: 7.4

CCCCCCCCCCCCNS(=O)(=O)c1ccc(NC(=O)C(OC(=O)N(c2ccc(/C=C(\C#N)c3nc4ccccc4o3)c(C)c2)C2CCCC2)C(=O)c2ccccc2)c(Cl)c1 (stereo not drawn) [Coupler Y-9]
pKa [3]: 8

CCCCCCCCCCCCS(=O)(=O)c1ccc(NC(=O)C(OC(=O)N(c2ccc(/C=C(\C#N)c3nc4ccccc4o3)c(C)c2)C2CCCC2)C(=O)c2ccc(Cl)cc2)c(Cl)c1 (stereo not drawn) [Coupler Y-10]
pKa [5]: 7.2

CCCCCCCCCCCCS(=O)(=O)c1ccc(NC(=O)C(OC(=O)N(CC)c2ccc(/C=C(\C#N)c3nc4cc(C(C)(C)CC(C)(C)C)ccc4o3)c(C)c2)C(=O)c2ccc(Cl)cc2)c(Cl)c1 (stereo not drawn) [Coupler Y-11]
pKa [5]: 7
